{"source": "patent US20180140545A1", "about": "“ANTIMICROBIAL PEPTIDE STIMULATING SANITIZING COMPOSITION” (GOJO Industries, Inc., priority 2016, published 2018)", "type_in_all_cases": "cell-based", "key": {"[1]": {"system": "HBD-2", "experiment": "HBD-2 ELISA, dose response in Neonatal Human Epidermal Keratinocytes", "conditions": "for HBD-2: NHEK, overnight (16 hours)", "protocol": "(§1) To determine the optimal dose of active ingredient, test dose response studies were run using both Decorinyl® and Pamitoyl Pentapeptided-3. These test dose response studies were commissioned to determine the concentration of HBD-2 at various levels of the active ingredients. Neonatal Human Epidermal Keratinocytes (NHEK; Life Technology, Grand Island, N.Y., USA) were cultured with keratinocyte growth medium (KGM, Medium 154: M-154-500 Life Technology with supplements S-001, Life Technologies). NHEK were seeded into 96-well plates at a density of 10000 cells in 200 μl medium per well. After 48 hours, the cells were incubated with varying concentrations of each ingredient solution in a culture medium (KGM) overnight (16 hours) at 37° C., 5% CO2 and 95% humidity at four replicates for each concentration. Each of these active ingredients were tested at the following weight percents based on the weight of the total culture: 0.02 wt. %, 0.05 wt. %, 0.1 wt. %, 0.2 wt. %, 0.5 wt. %, 1.0 wt. %, 2.0 wt. %. Each of these compositions was compared to a control culture medium.\n(§2) HBD-2 was detected using HBD-2 ELISA developing kits (commercially available from Peprotech). ELISA were performed according to the manufactory instructions of each kit by adding 100 μl/well of culture medium after overnight treatment. The substrate of ELISA reaction was using the substrate reagent from R&D Systems (DY999), and the reactions were stopped by adding 50 μl of 1N H2SO4 in each well. The results were measured using a colorimeter, absorbance was measured at 450 nanometers (nm) within 30 minutes. Wavelength correction was set to 570 nm. The concentration of each sample was calculated using ELISA standard curve."}, "[2]": {"system": "HBD-3", "experiment": "HBD-3 ELISA, dose response in Neonatal Human Epidermal Keratinocytes", "conditions": "for HBD-3: NHEK, overnight (16 hours); for increase in HBD-3 production and/or activity: vs control culture medium", "protocol": "as §1, with “of HBD-3” for “of HBD-2”, “ingredients was” for “ingredients were”\nas §2, with “HBD-3” for “HBD-2”"}, "[3]": {"system": "HBD-1", "experiment": "HBD-1 ELISA, dose response in Neonatal Human Epidermal Keratinocytes", "conditions": "for HBD-1: NHEK, overnight (16 hours); for increase in HBD-1 production and/or activity: vs control culture medium", "protocol": "as §1, with “of HBD-1” for “of HBD-2”, “ingredients was” for “ingredients were”\nas §2, with “HBD-1 was detected” for “HBD-2 was detected”, “detected using HBD-1 ELISA (enzyme-linked” for “detected using HBD-2 ELISA developing”, “HBD-1 ELISA (enzyme-linked immunosorbent assay) developing kits” for “HBD-2 ELISA developing kits”"}}, "data": [{"substance": "palmitoyl pentapeptide-3 [Pamitoyl Pentapeptided-3]", "values": [{"measurement": "HBD-2", "setting": "[1]; 0.02% active ingredient", "result": 9, "unit": "pg/mL"}, {"measurement": "HBD-2", "setting": "[1]; 0.05% active ingredient", "result": 8, "unit": "pg/mL"}, {"measurement": "HBD-2", "setting": "[1]; 0.1% active ingredient", "result": 9, "unit": "pg/mL"}, {"measurement": "HBD-2", "setting": "[1]; 0.2% active ingredient", "result": 14, "unit": "pg/mL"}, {"measurement": "HBD-2", "setting": "[1]; 0.5% active ingredient", "result": 21, "unit": "pg/mL"}, {"measurement": "HBD-2", "setting": "[1]; 1% active ingredient", "result": 72, "unit": "pg/mL"}, {"measurement": "HBD-2", "setting": "[1]; 2% active ingredient", "result": 203, "unit": "pg/mL"}, {"measurement": "increase in HBD-2 production and/or activity", "setting": "[1]; 2.0 wt. %, vs control culture medium", "result": 2800, "unit": "%"}, {"measurement": "HBD-3", "setting": "[2]; 0.02% active ingredient", "result": 288, "unit": "pg/mL"}, {"measurement": "HBD-3", "setting": "[2]; 0.05% active ingredient", "result": 242, "unit": "pg/mL"}, {"measurement": "HBD-3", "setting": "[2]; 0.1% active ingredient", "result": 387, "unit": "pg/mL"}, {"measurement": "HBD-3", "setting": "[2]; 0.2% active ingredient", "result": 775, "unit": "pg/mL"}, {"measurement": "HBD-3", "setting": "[2]; 0.5% active ingredient", "result": 2278, "unit": "pg/mL"}, {"measurement": "HBD-3", "setting": "[2]; 1% active ingredient", "result": 4783, "unit": "pg/mL"}, {"measurement": "increase in HBD-3 production and/or activity", "setting": "[2]; 1.0 wt. %", "result": 1005, "unit": "%"}, {"measurement": "HBD-3", "setting": "[2]; 2% active ingredient", "result": 8617, "unit": "pg/mL"}, {"measurement": "increase in HBD-3 production and/or activity", "setting": "[2]; 2.0 wt. %", "result": 1890, "unit": "%"}, {"measurement": "HBD-1", "setting": "[3]; 0.02% active ingredient", "result": 59, "unit": "pg/mL"}, {"measurement": "HBD-1", "setting": "[3]; 0.05% active ingredient", "result": 57, "unit": "pg/mL"}, {"measurement": "HBD-1", "setting": "[3]; 0.1% active ingredient", "result": 64, "unit": "pg/mL"}, {"measurement": "HBD-1", "setting": "[3]; 0.2% active ingredient", "result": 85, "unit": "pg/mL"}, {"measurement": "HBD-1", "setting": "[3]; 0.5% active ingredient", "result": 162, "unit": "pg/mL"}, {"measurement": "HBD-1", "setting": "[3]; 1% active ingredient", "result": 259, "unit": "pg/mL"}, {"measurement": "increase in HBD-1 production and/or activity", "setting": "[3]; 1.0 wt. %", "result": 311, "unit": "%"}, {"measurement": "HBD-1", "setting": "[3]; 2% active ingredient", "result": 1047, "unit": "pg/mL"}, {"measurement": "increase in HBD-1 production and/or activity", "setting": "[3]; 2.0 wt. %", "result": 1561, "unit": "%"}]}]}
